According to ChEMBL document CHEMBL5465560, “Selectivity Literature for EUbOPEN Chemogenomic Library” (2024):

How the values were obtained:
[1] = biological target: Phosphatidylinositol 4,5-bisphosphate 3-kinase catalytic subunit gamma isoform (Homo sapiens) (UniProt P48736); assay: Selectivity interaction (KinomeScan (DiscoverX)) EUB0001049a PIK3CG; details: at 1 µM
[2] = biological target: T1, Interleukin-1 receptor-associated kinase 4 (Homo sapiens) (UniProt Q9NWZ3); assay: Selectivity interaction (Kinase panel (KiNativ target engagement assay in Jurkat cells)) EUB0001635a IRAK4; assay type: cell-based; details: Selectivity number of off-targets 0.0, Selectivity number of targets 233.0, Source Knowledge https://www.sciencedirect.com/science/article/pii/S2451945619300674?via%3Dihub, at 1 µM
T1 sequence (whole entry): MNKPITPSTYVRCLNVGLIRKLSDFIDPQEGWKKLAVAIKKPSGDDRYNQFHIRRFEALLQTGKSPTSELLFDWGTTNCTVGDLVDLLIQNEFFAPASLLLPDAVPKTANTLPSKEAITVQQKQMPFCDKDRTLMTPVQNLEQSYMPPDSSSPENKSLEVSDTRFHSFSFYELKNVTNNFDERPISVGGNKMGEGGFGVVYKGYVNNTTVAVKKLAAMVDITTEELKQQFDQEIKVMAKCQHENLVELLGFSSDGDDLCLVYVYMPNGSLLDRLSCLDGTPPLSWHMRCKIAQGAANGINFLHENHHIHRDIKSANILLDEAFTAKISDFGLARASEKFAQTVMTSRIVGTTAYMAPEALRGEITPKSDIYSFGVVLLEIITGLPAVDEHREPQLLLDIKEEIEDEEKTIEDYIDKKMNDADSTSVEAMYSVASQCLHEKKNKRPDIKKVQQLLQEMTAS

[3] = biological target: T2, Serine/threonine-protein kinase tousled-like 1 (Homo sapiens) (UniProt Q9UKI8); assay: Selectivity interaction (Kinase panel (KiNativ target engagement assay in Jurkat cells)) EUB0001635a TLK1; assay type: cell-based; details: at 1 µM
T2 sequence (whole entry): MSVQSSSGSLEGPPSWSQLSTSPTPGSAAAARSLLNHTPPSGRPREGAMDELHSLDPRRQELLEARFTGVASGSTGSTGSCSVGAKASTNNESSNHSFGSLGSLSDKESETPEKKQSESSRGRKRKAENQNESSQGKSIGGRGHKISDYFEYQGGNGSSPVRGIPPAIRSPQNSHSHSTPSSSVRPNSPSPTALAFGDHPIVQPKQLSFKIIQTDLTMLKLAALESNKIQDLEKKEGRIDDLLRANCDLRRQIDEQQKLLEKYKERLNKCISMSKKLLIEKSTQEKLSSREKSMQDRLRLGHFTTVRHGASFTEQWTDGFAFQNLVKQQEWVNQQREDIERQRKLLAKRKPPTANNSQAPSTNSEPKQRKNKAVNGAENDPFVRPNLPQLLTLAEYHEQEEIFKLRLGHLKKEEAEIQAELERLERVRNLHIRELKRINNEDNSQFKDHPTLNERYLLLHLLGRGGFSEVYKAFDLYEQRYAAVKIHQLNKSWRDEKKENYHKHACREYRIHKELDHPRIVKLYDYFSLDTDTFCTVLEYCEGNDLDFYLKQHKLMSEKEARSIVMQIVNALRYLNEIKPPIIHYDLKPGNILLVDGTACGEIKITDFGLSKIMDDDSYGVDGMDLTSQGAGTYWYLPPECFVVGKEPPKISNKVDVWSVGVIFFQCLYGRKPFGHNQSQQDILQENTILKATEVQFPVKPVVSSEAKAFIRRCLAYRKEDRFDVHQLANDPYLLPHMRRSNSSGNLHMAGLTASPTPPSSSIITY

[4] = biological target: T3, Ephrin type-B receptor 3 (Homo sapiens) (UniProt P54753); assay: Selectivity interaction (Kinase panel (DSF assay)) EUB0001559a EPHB3
T3 sequence (whole entry): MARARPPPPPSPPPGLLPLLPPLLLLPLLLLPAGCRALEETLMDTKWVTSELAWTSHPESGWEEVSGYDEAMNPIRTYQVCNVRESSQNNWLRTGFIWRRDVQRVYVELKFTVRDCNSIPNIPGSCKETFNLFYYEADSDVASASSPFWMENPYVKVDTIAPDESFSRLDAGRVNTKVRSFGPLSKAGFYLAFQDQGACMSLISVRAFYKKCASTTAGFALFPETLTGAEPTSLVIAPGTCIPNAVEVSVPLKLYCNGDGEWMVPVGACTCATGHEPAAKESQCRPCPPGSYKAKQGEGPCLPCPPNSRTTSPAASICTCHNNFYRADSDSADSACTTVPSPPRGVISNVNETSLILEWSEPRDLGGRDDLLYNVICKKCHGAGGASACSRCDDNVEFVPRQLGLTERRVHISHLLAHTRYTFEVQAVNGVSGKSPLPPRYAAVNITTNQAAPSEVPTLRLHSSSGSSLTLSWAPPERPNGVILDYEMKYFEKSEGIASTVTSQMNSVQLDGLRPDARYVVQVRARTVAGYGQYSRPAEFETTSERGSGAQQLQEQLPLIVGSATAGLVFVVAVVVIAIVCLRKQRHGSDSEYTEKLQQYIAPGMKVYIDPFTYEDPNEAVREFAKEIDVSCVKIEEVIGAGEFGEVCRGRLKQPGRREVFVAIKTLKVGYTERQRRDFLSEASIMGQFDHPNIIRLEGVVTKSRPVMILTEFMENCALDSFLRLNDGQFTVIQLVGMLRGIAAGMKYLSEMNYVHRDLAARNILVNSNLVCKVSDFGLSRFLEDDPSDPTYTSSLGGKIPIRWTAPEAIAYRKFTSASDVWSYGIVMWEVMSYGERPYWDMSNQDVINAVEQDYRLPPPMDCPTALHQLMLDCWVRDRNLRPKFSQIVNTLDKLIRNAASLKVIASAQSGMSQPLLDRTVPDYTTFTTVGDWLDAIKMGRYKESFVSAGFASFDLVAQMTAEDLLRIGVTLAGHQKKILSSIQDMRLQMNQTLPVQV

[5] = biological target: Activated CDC42 kinase 1 (Homo sapiens, UniProt Q07912); assay: Selectivity interaction (Kinase panel (Invitrogen)) EUB0000639a TNK2; details: at 200 nM
Chain of Activated CDC42 kinase 1 (Q07912 whole entry, looked up): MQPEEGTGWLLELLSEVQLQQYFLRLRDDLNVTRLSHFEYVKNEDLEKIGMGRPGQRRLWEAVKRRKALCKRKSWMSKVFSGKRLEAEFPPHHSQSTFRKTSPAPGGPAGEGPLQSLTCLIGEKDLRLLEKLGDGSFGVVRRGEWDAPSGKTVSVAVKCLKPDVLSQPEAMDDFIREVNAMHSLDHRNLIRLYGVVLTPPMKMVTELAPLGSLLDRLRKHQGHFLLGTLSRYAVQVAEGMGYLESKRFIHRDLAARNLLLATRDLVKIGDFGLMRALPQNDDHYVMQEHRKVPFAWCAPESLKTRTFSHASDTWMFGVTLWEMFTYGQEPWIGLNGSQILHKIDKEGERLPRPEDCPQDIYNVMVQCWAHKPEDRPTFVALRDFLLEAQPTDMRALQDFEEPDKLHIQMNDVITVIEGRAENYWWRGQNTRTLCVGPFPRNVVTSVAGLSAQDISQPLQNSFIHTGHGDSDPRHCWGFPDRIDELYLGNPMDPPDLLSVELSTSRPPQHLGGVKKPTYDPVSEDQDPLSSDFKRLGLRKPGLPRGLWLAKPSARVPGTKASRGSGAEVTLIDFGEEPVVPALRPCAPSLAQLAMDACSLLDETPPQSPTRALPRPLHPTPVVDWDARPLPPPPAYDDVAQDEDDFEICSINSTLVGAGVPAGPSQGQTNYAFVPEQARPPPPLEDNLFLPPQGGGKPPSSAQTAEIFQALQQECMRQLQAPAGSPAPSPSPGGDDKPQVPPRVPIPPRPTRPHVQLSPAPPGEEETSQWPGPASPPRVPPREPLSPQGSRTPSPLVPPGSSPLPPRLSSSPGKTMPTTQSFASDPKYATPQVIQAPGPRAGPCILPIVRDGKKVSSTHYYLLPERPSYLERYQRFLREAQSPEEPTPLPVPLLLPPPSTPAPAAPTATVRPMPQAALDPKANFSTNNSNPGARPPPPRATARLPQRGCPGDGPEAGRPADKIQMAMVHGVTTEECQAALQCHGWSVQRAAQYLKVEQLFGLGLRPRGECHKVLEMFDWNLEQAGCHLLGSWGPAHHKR

[6] = system: Epidermal growth factor receptor (Homo sapiens), P00533 [UNDEFINED MUTATION]; assay: Selectivity interaction (KinomeScan (DiscoverX)) EUB0000092b EGFR; details: at 10 µM
Chain of Epidermal growth factor receptor (Homo sapiens), P00533 [UNDEFINED MUTATION] (P00533 whole entry, looked up, change not shown): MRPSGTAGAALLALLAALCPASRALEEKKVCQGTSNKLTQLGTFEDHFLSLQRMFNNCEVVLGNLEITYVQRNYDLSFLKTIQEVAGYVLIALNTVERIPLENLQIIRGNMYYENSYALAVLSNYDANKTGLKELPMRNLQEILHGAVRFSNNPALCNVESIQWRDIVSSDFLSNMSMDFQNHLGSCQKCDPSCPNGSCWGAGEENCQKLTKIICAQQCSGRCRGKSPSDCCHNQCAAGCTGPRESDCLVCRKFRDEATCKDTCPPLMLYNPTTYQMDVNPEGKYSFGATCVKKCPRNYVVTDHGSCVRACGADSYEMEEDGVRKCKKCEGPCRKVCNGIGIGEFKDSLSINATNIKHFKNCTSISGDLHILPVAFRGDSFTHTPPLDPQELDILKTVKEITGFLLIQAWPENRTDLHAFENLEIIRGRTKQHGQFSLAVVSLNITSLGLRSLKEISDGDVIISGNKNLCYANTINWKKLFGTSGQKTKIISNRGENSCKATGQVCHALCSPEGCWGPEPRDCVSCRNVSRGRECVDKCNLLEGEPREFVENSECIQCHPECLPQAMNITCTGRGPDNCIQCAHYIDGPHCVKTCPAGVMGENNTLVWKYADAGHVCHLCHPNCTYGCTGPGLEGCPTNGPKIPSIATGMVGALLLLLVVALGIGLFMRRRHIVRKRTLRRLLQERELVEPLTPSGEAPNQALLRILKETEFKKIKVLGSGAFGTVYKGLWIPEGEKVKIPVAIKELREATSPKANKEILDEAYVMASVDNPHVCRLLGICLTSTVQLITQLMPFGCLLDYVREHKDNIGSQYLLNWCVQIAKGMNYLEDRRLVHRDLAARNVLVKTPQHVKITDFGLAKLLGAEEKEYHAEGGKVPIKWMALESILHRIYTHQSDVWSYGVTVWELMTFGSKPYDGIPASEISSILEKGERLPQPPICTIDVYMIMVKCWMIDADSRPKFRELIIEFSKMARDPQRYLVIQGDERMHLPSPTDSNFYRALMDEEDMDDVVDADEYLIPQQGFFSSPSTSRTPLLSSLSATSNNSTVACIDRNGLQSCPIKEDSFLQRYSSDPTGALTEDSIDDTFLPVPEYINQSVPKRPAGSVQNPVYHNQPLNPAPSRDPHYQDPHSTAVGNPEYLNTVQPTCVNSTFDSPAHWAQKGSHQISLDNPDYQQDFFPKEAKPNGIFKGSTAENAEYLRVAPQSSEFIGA

[7] = biological target: Tyrosine-protein kinase Lck (Homo sapiens, UniProt P06239); assay: Selectivity interaction (Kinase screening (Upstate/Millipore)) EUB0000604a LCK
[8] = system: Epidermal growth factor receptor (Homo sapiens), P00533 [L858R]; details: at 10 µM
Chain of Epidermal growth factor receptor (Homo sapiens), P00533 [L858R] (P00533 whole entry L858R): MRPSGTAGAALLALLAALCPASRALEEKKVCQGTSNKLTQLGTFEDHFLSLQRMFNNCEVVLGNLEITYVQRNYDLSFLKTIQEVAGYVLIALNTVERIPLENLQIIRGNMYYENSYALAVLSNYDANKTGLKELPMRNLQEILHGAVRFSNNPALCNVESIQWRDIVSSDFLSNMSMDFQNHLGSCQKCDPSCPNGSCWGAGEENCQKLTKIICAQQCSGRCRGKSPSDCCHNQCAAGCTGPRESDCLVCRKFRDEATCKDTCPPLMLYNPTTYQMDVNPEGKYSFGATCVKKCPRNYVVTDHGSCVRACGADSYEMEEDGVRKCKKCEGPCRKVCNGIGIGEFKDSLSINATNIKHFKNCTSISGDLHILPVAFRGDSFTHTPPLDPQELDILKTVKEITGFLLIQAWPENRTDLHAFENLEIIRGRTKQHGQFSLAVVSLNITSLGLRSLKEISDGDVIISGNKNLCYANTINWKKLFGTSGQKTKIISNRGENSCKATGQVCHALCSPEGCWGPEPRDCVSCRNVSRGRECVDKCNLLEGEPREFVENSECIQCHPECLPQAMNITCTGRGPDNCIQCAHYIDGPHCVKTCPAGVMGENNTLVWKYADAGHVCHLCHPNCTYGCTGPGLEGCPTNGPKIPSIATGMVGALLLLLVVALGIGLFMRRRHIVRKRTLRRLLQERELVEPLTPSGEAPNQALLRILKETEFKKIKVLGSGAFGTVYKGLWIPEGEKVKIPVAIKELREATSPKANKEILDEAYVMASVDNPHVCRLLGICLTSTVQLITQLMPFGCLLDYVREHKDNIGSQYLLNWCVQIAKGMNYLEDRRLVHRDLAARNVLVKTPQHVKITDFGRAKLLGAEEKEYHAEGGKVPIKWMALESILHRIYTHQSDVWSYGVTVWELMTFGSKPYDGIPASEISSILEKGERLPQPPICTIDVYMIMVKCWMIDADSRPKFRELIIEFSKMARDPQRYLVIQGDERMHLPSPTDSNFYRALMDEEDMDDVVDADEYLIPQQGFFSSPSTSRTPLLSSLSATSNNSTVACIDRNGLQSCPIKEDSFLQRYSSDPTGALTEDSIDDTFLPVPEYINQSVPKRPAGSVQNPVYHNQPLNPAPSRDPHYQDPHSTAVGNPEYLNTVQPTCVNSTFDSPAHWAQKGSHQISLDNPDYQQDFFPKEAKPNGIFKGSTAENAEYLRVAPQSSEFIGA

[9] = biological target: Histone-lysine N-methyltransferase, H3 lysine-36 specific (Homo sapiens) (UniProt Q96L73); assay: Selectivity interaction (Methyltransferase screen (radiometric assays, panel of 8 PRMTs, 21 protein lysine methyltransferases, 3 DNA methyltransferases, and one RNA methyltransferase)) EUB0000272b NSD1; details: at 1 µM
[10] = biological target: Calcium/calmodulin-dependent protein kinase type II subunit alpha (Homo sapiens, UniProt Q9UQM7); assay: Selectivity interaction (ProQinase) EUB0000171b CAMK2A
Chain of Calcium/calmodulin-dependent protein kinase type II subunit alpha (Q9UQM7 whole entry): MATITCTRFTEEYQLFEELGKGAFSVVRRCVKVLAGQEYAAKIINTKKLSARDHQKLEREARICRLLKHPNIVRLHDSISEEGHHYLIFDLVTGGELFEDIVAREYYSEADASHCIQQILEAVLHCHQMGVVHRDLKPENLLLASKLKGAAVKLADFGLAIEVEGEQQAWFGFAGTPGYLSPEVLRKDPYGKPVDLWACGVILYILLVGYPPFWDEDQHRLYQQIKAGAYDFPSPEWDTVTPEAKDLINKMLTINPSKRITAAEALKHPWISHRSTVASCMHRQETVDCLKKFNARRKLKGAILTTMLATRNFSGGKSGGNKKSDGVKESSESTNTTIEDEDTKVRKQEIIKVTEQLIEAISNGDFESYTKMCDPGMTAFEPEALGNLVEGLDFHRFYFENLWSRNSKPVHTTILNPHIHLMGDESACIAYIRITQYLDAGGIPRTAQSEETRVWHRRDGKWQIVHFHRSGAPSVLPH

Chain of Phosphatidylinositol 4,5-bisphosphate 3-kinase catalytic subunit gamma isoform (Homo sapiens) (P48736 whole entry, looked up, canonical isoform): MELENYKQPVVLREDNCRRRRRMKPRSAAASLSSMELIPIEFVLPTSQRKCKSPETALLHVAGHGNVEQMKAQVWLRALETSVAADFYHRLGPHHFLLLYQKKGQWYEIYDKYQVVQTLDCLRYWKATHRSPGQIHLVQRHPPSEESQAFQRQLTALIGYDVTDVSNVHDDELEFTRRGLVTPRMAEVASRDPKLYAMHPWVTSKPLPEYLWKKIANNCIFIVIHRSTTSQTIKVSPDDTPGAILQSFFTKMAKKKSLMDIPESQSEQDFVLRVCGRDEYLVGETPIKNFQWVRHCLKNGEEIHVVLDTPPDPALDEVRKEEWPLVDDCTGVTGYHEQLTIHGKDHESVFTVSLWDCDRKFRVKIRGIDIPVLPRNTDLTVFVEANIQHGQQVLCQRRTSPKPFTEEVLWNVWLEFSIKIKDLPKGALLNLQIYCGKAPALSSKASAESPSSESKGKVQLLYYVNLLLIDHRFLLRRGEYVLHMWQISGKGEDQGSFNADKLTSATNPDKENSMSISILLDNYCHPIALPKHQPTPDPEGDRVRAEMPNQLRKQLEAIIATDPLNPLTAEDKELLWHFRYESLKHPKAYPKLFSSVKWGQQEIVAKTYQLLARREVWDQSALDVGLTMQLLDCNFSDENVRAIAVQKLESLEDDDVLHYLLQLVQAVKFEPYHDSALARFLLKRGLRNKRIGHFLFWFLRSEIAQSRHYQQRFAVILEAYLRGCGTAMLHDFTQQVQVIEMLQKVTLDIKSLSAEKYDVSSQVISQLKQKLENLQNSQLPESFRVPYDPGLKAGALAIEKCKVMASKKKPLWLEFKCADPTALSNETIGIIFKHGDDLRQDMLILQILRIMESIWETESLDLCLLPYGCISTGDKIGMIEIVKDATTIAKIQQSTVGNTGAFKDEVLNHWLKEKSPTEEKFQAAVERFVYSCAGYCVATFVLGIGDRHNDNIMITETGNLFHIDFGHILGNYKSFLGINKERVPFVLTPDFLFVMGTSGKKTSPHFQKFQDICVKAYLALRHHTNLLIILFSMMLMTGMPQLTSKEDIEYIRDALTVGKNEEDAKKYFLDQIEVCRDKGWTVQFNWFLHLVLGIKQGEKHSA

`COc1cc(Nc2nc(C)cc(-c3cnn4nc(OC)ccc34)n2)cc(C(F)(F)F)c1` gave a % of control [1] of 93%.
In the case of `C=CC(=O)Nc1ccc(C(=O)Nc2[nH]nc3c2CN(C(=O)N[C@H](CN(C)C)c2ccccc2)C3(C)C)cc1`, the % of engagement [2] is reported as 0.4%, the % of engagement ([3]; Selectivity number of off-targets 0.0, Selectivity number of targets 233.0, Source Knowledge https://www.sciencedirect.com/science/article/pii/S2451945619300674?via%3Dihub) is reported as 12.6% and the % of engagement [3] is reported as 13.2%.
Work on `CN(C(=O)c1cnn2cccnc12)c1cc2c(cc1N1CCOCC1)C(=O)N(C[C@@H](F)C(C)(C)O)C2` yielded a dTM [4] of 0 K.
`CC[C@@H]1[C@H](F)C(=O)N[C@@H]1COc1nccc2cc(C(N)=O)c(OC)cc12` [ZIMLOVISERTIB] gave a % of inhibition [5] of -1.67%.
For `CCC(=O)N1CCN(c2ccc(-n3c(=O)ccc4cnc5ccc(-c6cnc7ccccc7c6)cc5c43)cc2C(F)(F)F)CC1`, the % of control [6] was 84%.
In the case of `Cc1cnc(Nc2ccc(F)cc2Cl)nc1-c1c[nH]c(C(=O)N[C@H](CO)c2cccc(Cl)c2)c1`, the % of inhibition [7] is reported as 3%.
Work on `Cc1cc([C@@H](C)Nc2ccccc2C(=O)O)c2nc(N3CCOCC3)cc(=O)n2c1` [AZD-6482] yielded a % of control [8] of 100%.
For `Cc1cc(C)cc([C@H]2c3cc(C)ccc3NC(=O)CN2C(=O)c2ccc(Br)s2)c1`, the % of activity [9] was 97.7%.
For `C=CC(=O)Nc1cccc(C(=O)Nc2ccc(Nc3cc(-c4[nH]c(SC)nc4C)ccn3)cc2)c1`, the % of control ([10]; at 1 µM) was 90% and the % of control ([10]; at 5 µM) was 90%.
